Assay results taken from patent US20020054861A1, “Method of preparing particularly skin-compatible cosmetic or dematological cleansing preparations” (priority 1999, published 2002).

System: skin (inner sides of the forearms)
Assay: Adsorption of lauryl ether sulfate on the skin in a simulated washing operation (forearm, desorption with Triton X-100, ion-pair chromatography)
Type: in vivo, human
Method: The method which we have developed for determining the adsorption of lauryl ether sulfate on the skin simulates a washing operation as occurs, for example, during daily showering: Firstly, the inner sides of the forearms are divided into a number of test areas using insulating tape. The area to be treated is then wetted with approximately 50 ml of mains wafer (T=38±1° C.). The lauryl ether sulfate is then applied. Throughout the application period of 45 s, the test subject distributes the lauryl ether sulfate over the area using 2 fingers in uniform circular movements. At the end of the application period, the test area is rinsed with approximately 950 ml of mains water (T=38±1° C.) and carefully patted dry using a clean cellulose cloth. For the desorption, a plastic ring with an internal diameter of 25 mm is pressed firmly onto the inner side of the test subject's forearm. 1000 μl of a 1% Triton X-100 solution are then introduced into the ring. The tip of a round Teflon-coated spatula is then used to scrape the skin uniformly for 1 min. This leads to suspension of corneocytes. To work up the samples for analysis, the samples are centrifuged and 800 μl of the supernatant are drawn off. The supernatant is analyzed with regard to its lauryl ether sulfate content using ion-pair chromatography. The effectiveness of the desorption method described is 79%, i.e. 79% of the amount of lauryl ether sulfate actually present on the skin are included.

[1] = cosurfactant concentration 3%, added to a lauryl ether sulfate solution

| Molecule | Effect on the adsorbed amount of lauryl ether sulfate (reduction) [1] | further results |
| --- | --- | --- |
| CCCCCCCCCCO[C@@H]1O[C@H](CO)[C@@H](O)[C@H](O)[C@H]1O [Decyl glucoside] |  | Effect on the adsorbed amount of lauryl ether sulfate (reduction) (cosurfactant concentration 5%, added to a lauryl ether sulfate solution): Reduction by 29% |
| CCCCCCCCCCCC(=O)O [Lauric acid] |  | Effect on the adsorbed amount of lauryl ether sulfate (reduction) (cosurfactant concentration 1%, pH9, added to a lauryl ether sulfate solution): Reduction by 15% |
| cocamidopropylbetaine | Reduction by 31% |  |
| disodium laureth sulfosuccinate | Reduction by 28% |  |
| sodium cocoamphoacetate | Reduction by 27% |  |
